Laboratory results from patent publication US9944602B2, “Piperidinone herbicides” (E. I. DU PONT DE NEMOURS AND COMPANY, priority 2014, dated 2018).

What was measured:
Assay type in all cases: in vivo
[1] = tested on: ryegrass, Italian (Italian ryegrass, Lolium multiflorum); assay: Test C postemergence ryegrass, Italian; details: Table C, scale 0 to 100
Description: (§1) Seeds of plant species selected from blackgrass (Alopecurus myosuroides), ryegrass, Italian (Italian ryegrass, Lolium multiflorum), wheat (winter wheat, Triticum aestivum), galium (catchweed bedstraw, Galium aparine), corn (Zea mays), crabgrass, large (large crabgrass, Digitaria sanguinalis), foxtail, giant (giant foxtail, Setaria faberii), johnsongrass (Sorghum halepense), lambsquarters (Chenopodium album), morningglory (Ipomoea coccinea), yellow (yellow nutsedge, Cyperus esculentus), pigweed (Amaranthus retroflexus), ragweed (common ragweed, Ambrosia elatior), soybean (Glycine max), barnyardgrass (Echinochloa crus-galli), oilseed rape (Brassica napus), waterhemp (common waterhemp, Amaranthus rudis), and velvetleaf (Abutilon theophrasti) were planted into a blend of loam soil and sand and treated preemergence with test chemicals formulated in a non-phytotoxic solvent mixture which included a surfactant. At the same time, plants selected from these crop and weed species and also chickweed (common chickweed, Stellaria media), kochia (Kochia scoparia), and oat, wild (wild oat, Avena fatua) were planted in pots containing Sunshine Redi-Earth® planting medium comprising spaghnum peat moss, vermiculite, starter nutrients and dolomitic limestone and treated with postemergence applications of test chemicals formulated in the same manner. Plants ranged in height from 2 to 18 cm (1- to 4-leaf stage) for postemergence treatments. Treated plants and controls were maintained in a greenhouse for 13 to 15 days, after which time all species were compared to controls and visually evaluated. Plant response ratings, summarized in Table C, are based on a scale of 0 to 100 where 0 is no effect and 100 is complete control. A dash (-) response means no test result.

[2] = tested on: pigweed (Amaranthus retroflexus); assay: Test C postemergence pigweed; details: Table C, scale 0 to 100
Description: as §1

corn (Zea mays) [3] = assay: Test C postemergence corn; details: Table C, scale 0 to 100
Description: as §1

[4] = tested on: velvetleaf (Abutilon theophrasti); assay: Test C postemergence velvetleaf; details: Table C, scale 0 to 100
Description: as §1

[5] = tested on: yellow (yellow nutsedge, Cyperus esculentus); assay: Test C postemergence yellow nutsedge; details: Table C, scale 0 to 100
Description: as §1

[6] = tested on: chickweed (common chickweed, Stellaria media); assay: Test C postemergence chickweed; details: Table C, scale 0 to 100
Description: as §1

[7] = tested on: blackgrass (Alopecurus myosuroides); assay: Test C postemergence blackgrass; details: Table C, scale 0 to 100
Description: as §1

[8] = tested on: morningglory (Ipomoea coccinea); assay: Test C preemergence morningglory; details: Table C, scale 0 to 100
Description: as §1

[9] = tested on: johnsongrass (Sorghum halepense); assay: Test C preemergence johnsongrass; details: Table C, scale 0 to 100
Description: as §1

[10] = tested on: blackgrass (Alopecurus myosuroides); assay: Test C preemergence blackgrass; details: Table C, scale 0 to 100
Description: as §1

[11] = tested on: oilseed rape (Brassica napus); assay: Test C preemergence oilseed rape; details: Table C, scale 0 to 100
Description: as §1

[12] = tested on: wheat (winter wheat, Triticum aestivum); assay: Test C preemergence wheat; details: Table C, scale 0 to 100
Description: as §1

[13] = tested on: crabgrass, large (large crabgrass, Digitaria sanguinalis); assay: Test C preemergence crabgrass, large; details: Table C, scale 0 to 100
Description: as §1

[14] = tested on: foxtail, giant (giant foxtail, Setaria faberii); assay: Test C preemergence foxtail, giant; details: Table C, scale 0 to 100
Description: as §1

[15] = tested on: crabgrass, large (large crabgrass, Digitaria sanguinalis); assay: Test A postemergence crabgrass, large; details: 0 to 100 scale, 0 is no effect, 100 is complete control
Description: (§2) Seeds of plant species selected from barnyardgrass (Echinochloa crus-galli), kochia (Kochia scoparia), ragweed (common ragweed, Ambrosia elatior), ryegrass, Italian (Italian ryegrass, Lolium multiflorum), crabgrass, large (large crabgrass, Digitaria sanguinalis), foxtail, giant (giant foxtail, Setaria faberii), morningglory (Ipomoea spp.), pigweed (Amaranthus retroflexus), velvetleaf (Abutilon theophrasti), wheat (Triticum aestivum), and corn (Zea mays) were planted into a blend of loam soil and sand and treated preemergence with a directed soil spray using test chemicals formulated in a non-phytotoxic solvent mixture which included a surfactant.
(§3) At the same time, plants selected from these crop and weed species and also blackgrass (Alopecurus myosuroides), and galium (catchweed bedstraw, Galium aparine) were planted in pots containing the same blend of loam soil and sand and treated with postemergence applications of test chemicals formulated in the same manner. Plants ranged in height from 2 to 10 cm and were in the one- to two-leaf stage for the postemergence treatment. Treated plants and untreated controls were maintained in a greenhouse for approximately 10 d, after which time all treated plants were compared to untreated controls and visually evaluated for injury. Plant response ratings, summarized in Table A, are based on a 0 to 100 scale where 0 is no effect and 100 is complete control. A dash (-) response means no test result.

corn (Zea mays) [16] = assay: Test A preemergence corn; details: 0 to 100 scale; for Corn plant response rating: 125 g ai/ha, 0 no effect, 100 complete control; for Plant response rating, Corn: 500 g ai/ha, 0 is no effect, 100 is complete control
Description: as §2, §3

[17] = tested on: wheat (Triticum aestivum); assay: Test A preemergence wheat; details: 0 to 100 scale, 0 no effect, 100 complete control
Description: as §2, §3

[18] = tested on: morningglory (Ipomoea spp.); assay: Test A preemergence morningglory; details: 0 to 100 scale, 0 no effect, 100 complete control
Description: as §2, §3

[19] = tested on: morningglory (Ipomoea spp.); assay: Test A postemergence morningglory; details: 0 to 100 scale, 0 is no effect, 100 is complete control
Description: as §2, §3

## O=C1NCCC(c2cccc(C(F)(F)F)c2)C1C(=O)Nc1ccccc1Cl (racemic) [Compound 17]
[1]; 31 g ai/ha
  Plant response rating: 0
[1]; 62 g ai/ha
  Plant response rating: 0
[1]; 125 g ai/ha
  Plant response rating: 0
[1]; 250 g ai/ha
  Plant response rating: 0
[2]; 31 g ai/ha
  Plant response rating: 0
[2]; 62 g ai/ha
  Plant response rating: 0
[2]; 125 g ai/ha
  Plant response rating: 0
[2]; 250 g ai/ha
  Plant response rating: 5
Corn (Zea mays) [3]; 31 g ai/ha
  Plant response rating: 0
Corn (Zea mays) [3]; 62 g ai/ha
  Plant response rating: 0
Corn (Zea mays) [3]; 125 g ai/ha
  Plant response rating: 0
Corn (Zea mays) [3]; 250 g ai/ha
  Plant response rating: 0
[4]; 31 g ai/ha
  Plant response rating: 0
[4]; 62 g ai/ha
  Plant response rating: 0
[4]; 125 g ai/ha
  Plant response rating: 0
[4]; 250 g ai/ha
  Plant response rating: 0
[5]; 31 g ai/ha
  Plant response rating: 0
[5]; 62 g ai/ha
  Plant response rating: 0
[5]; 125 g ai/ha
  Plant response rating: 0
[5]; 250 g ai/ha
  Plant response rating: 0
[6]; 31 g ai/ha
  Plant response rating: 0
[6]; 62 g ai/ha
  Plant response rating: 0
[6]; 125 g ai/ha
  Plant response rating: 0
[6]; 250 g ai/ha
  Plant response rating: 5
[7]; 31 g ai/ha
  Plant response rating: 0
[7]; 62 g ai/ha
  Plant response rating: 0
[7]; 125 g ai/ha
  Plant response rating: 0
[7]; 250 g ai/ha
  Plant response rating: 0

## O=C1NCCC(c2cccc(C(F)(F)F)c2)C1C(=O)Nc1ccc(F)c(F)c1F (racemic) [Compound 28]
[8]; 31 g ai/ha
  Plant response rating: 5
[8]; 62 g ai/ha
  Plant response rating: 5
[8]; 125 g ai/ha
  Plant response rating: 5
[8]; 250 g ai/ha
  Plant response rating: 30
[9]; 31 g ai/ha
  Plant response rating: 0
[9]; 62 g ai/ha
  Plant response rating: 0
[9]; 125 g ai/ha
  Plant response rating: 0
[9]; 250 g ai/ha
  Plant response rating: 10
[10]; 31 g ai/ha
  Plant response rating: 35
[10]; 62 g ai/ha
  Plant response rating: 40
[10]; 125 g ai/ha
  Plant response rating: 70
[10]; 250 g ai/ha
  Plant response rating: 90
[11]; 31 g ai/ha
  Plant response rating: 0
[11]; 62 g ai/ha
  Plant response rating: 0
[11]; 125 g ai/ha
  Plant response rating: 0
[11]; 250 g ai/ha
  Plant response rating: 0
[12]; 31 g ai/ha
  Plant response rating: 0
[12]; 62 g ai/ha
  Plant response rating: 0
[12]; 125 g ai/ha
  Plant response rating: 0
[12]; 250 g ai/ha
  Plant response rating: 10
[13]; 31 g ai/ha
  Plant response rating: 80
[13]; 62 g ai/ha
  Plant response rating: 85
[13]; 125 g ai/ha
  Plant response rating: 90
[13]; 250 g ai/ha
  Plant response rating: 90
[14]; 31 g ai/ha
  Plant response rating: 60
[14]; 62 g ai/ha
  Plant response rating: 85
[14]; 125 g ai/ha
  Plant response rating: 95
[14]; 250 g ai/ha
  Plant response rating: 95

## O=C1NCCC(c2cccc(C(F)(F)F)c2)C1C(=O)Nc1cccc(F)c1F (stereo not drawn) [Compound 9, N-(2,3-difluorophenyl)-2-oxo-4-[3-(trifluoromethyl)phenyl]-3-piperidinecarboxamide]
[1]; 31 g ai/ha
  Plant response rating: 0
[1]; 62 g ai/ha
  Plant response rating: 0
[1]; 125 g ai/ha
  Plant response rating: 0
[1]; 250 g ai/ha
  Plant response rating: 0
[2]; 31 g ai/ha
  Plant response rating: 0
[2]; 62 g ai/ha
  Plant response rating: 0
[2]; 125 g ai/ha
  Plant response rating: 5
[2]; 250 g ai/ha
  Plant response rating: 5
[8]; 31 g ai/ha
  Plant response rating: 0
[8]; 62 g ai/ha
  Plant response rating: 20
[8]; 125 g ai/ha
  Plant response rating: 5
[8]; 250 g ai/ha
  Plant response rating: 45
[9]; 31 g ai/ha
  Plant response rating: 0
[9]; 62 g ai/ha
  Plant response rating: 0
[9]; 125 g ai/ha
  Plant response rating: 35
[9]; 250 g ai/ha
  Plant response rating: 55
[15]; 125 g ai/ha
  Plant response rating, Crabgrass, Large: 80
[15]; 500 g ai/ha
  Plant response rating, Crabgrass, Large: 90
Corn (Zea mays) [3]; 31 g ai/ha
  Plant response rating: 0
Corn (Zea mays) [3]; 62 g ai/ha
  Plant response rating: 0
Corn (Zea mays) [3]; 125 g ai/ha
  Plant response rating: 0
Corn (Zea mays) [3]; 250 g ai/ha
  Plant response rating: 0
[10]; 31 g ai/ha
  Plant response rating: 50
[10]; 62 g ai/ha
  Plant response rating: 40
[10]; 125 g ai/ha
  Plant response rating: 80
[10]; 250 g ai/ha
  Plant response rating: 90
[11]; 31 g ai/ha
  Plant response rating: 0
[11]; 62 g ai/ha
  Plant response rating: 0
[11]; 125 g ai/ha
  Plant response rating: 0
[11]; 250 g ai/ha
  Plant response rating: 40
Corn (Zea mays) [16]
  Corn plant response rating: 20
  Plant response rating, Corn: 70
[4]; 31 g ai/ha
  Plant response rating: 0
[4]; 62 g ai/ha
  Plant response rating: 0
[4]; 125 g ai/ha
  Plant response rating: 0
[4]; 250 g ai/ha
  Plant response rating: 0
[17]; 125 g ai/ha
  Wheat plant response rating: 20
[17]; 500 g ai/ha
  Wheat plant response rating: 50
[18]; 125 g ai/ha
  Morningglory plant response rating: 0
[18]; 500 g ai/ha
  Morningglory plant response rating: 0
[12]; 31 g ai/ha
  Plant response rating: 0
[12]; 62 g ai/ha
  Plant response rating: 30
[12]; 125 g ai/ha
  Plant response rating: 55
[12]; 250 g ai/ha
  Plant response rating: 70
[19]; 125 g ai/ha
  Plant response rating, Morningglory: 0
[19]; 500 g ai/ha
  Plant response rating, Morningglory: 40
[5]; 31 g ai/ha
  Plant response rating: 0
[5]; 62 g ai/ha
  Plant response rating: 0
[5]; 125 g ai/ha
  Plant response rating: 0
[5]; 250 g ai/ha
  Plant response rating: 0
[6]; 31 g ai/ha
  Plant response rating: 0
[6]; 62 g ai/ha
  Plant response rating: 0
[6]; 125 g ai/ha
  Plant response rating: 0
[6]; 250 g ai/ha
  Plant response rating: 5
[13]; 31 g ai/ha
  Plant response rating: 95
[13]; 62 g ai/ha
  Plant response rating: 95
[13]; 125 g ai/ha
  Plant response rating: 98
[13]; 250 g ai/ha
  Plant response rating: 98
[14]; 31 g ai/ha
  Plant response rating: 90
[14]; 62 g ai/ha
  Plant response rating: 95
[14]; 125 g ai/ha
  Plant response rating: 95
[14]; 250 g ai/ha
  Plant response rating: 98
[7]; 31 g ai/ha
  Plant response rating: 0
[7]; 62 g ai/ha
  Plant response rating: 0
[7]; 125 g ai/ha
  Plant response rating: 0
[7]; 250 g ai/ha
  Plant response rating: 0

## O=C1NCCC(c2cccc(C(F)(F)F)c2)C1C(=O)Nc1ccccc1C(F)(F)F (stereo not drawn) [Compound 10, 2-oxo-N-[2-(trifluoromethyl)phenyl)-4-[3-(trifluoromethyl)phenyl]-3-piperidinecarboxamide]
[15]; 125 g ai/ha
  Plant response rating, Crabgrass, Large: 60
[15]; 500 g ai/ha
  Plant response rating, Crabgrass, Large: 80
Corn (Zea mays) [16]
  Corn plant response rating: 0
  Plant response rating, Corn: 0
[17]; 125 g ai/ha
  Wheat plant response rating: 0
[17]; 500 g ai/ha
  Wheat plant response rating: 0
[18]; 125 g ai/ha
  Morningglory plant response rating: 0
[18]; 500 g ai/ha
  Morningglory plant response rating: 0
[19]; 125 g ai/ha
  Plant response rating, Morningglory: 0
[19]; 500 g ai/ha
  Plant response rating, Morningglory: 0
